Data from US20100261246A1, “METHOD FOR INHIBITING TELOMERASE REACTION” (PANASONIC CORPORATION, priority 2009, published 2010).

Columns and labels:
telomerase [1] = test: Telomerase activity measurement with S7700 kit, telomerase reaction and PCR carried out sequentially in one mix, ladder peaks by Bioanalyzer 2100; format: biochemical; settings: 1.1 μM of TMPyP added
Protocol: In this experiment, comparative studies of effects of inhibiting telomerase by an anionic phthalocyanine and cationic porphyrin (TMPyP) that is a conventionally known typical material having an effect of inhibiting telomerase were carried out using a kit for telomerase activity measurement manufactured by Millipore Corporation (TRAPEZE Telomeraze Detection Kit S7700).
TRAPEZE Telomeraze Detection Kit S7700 (hereinafter, merely referred to as S7700 kit) is a kit that includes 10× TRAP Reaction buffer, 50× dNTPs Mix, TS primer, Primer Mix, and a control cell pellet.
The TS primer is an oligo DNA consisting of 5′-[sequence]-3′, and serves as an initiation sequence of the telomerase reaction upon binding of telomerase, similarly to a human telomeric DNA sequence.
Therefore, the Primer Mix in the S7700 kit includes RP primer. This primer is an oligo DNA having a sequence complementary to the sequence elongated by the telomerase reaction, and thus, the telomerase reaction product can be amplified to a detectable level on electrophoresis by carrying out PCR using the aforementioned TS primer and the RP primer.
As described above, the telomerase reaction and PCR are carried out sequentially in the telomerase activity measurement using the S7700 kit. […]

[2] = tested on: TaKaLa LA Taq Hot Start Version (polymerase reaction); test: PCR control band in the separate telomerase reaction / PCR experiment; format: biochemical; settings: 10 μM, no addition of λDNA
Protocol: (§1) Moreover, effects of inhibiting telomerase by TMPyP and anionic phthalocyanines were compared in Comparative Example 3 and Example 4 to 5 below. In these experiments, the S7700 kit was used similarly to the aforementioned Comparative Examples 1 to 2 and Examples 1 to 3. However, in Comparative Examples 1 to 2 and Examples 1 to 3 described above, the reagents required only for the telomerase reaction and PCR were all mixed first, and the telomerase reaction and PCR were carried out sequentially by regulating the reaction temperature. To the contrary, in the following Comparative Example 3 and Examples 4 to 5, only the reagents required for the telomerase reaction were first mixed to carry out a telomerase reaction, and a part of the reaction solution and the reagents required for the PCR were mixed to carry out the PCR.
(§2) Next, 4 μL of a solution prepared by diluting the solution after the telomerase reaction 20 times with milliQ water, 0.2 μL of 50× dNTP Mix, 0.2 μL of TS primer, 0.2 μL of Primer Mix, 0.1 μL of TaKaLa LA Taq Hot Start Version (manufactured by Takara Bio Inc.), 1 μL of 10× LA PCR buffer II (Mg^2+ plus) (buffer solution included in TaKaLa LA Taq Hot Start Version), and 4.3 μL of milliQ water were mixed to prepare a PCR solution in a total volume of 10 μL. Then, PCR was carried out by allowing this PCR solution to stand under temperature conditions in which a thermo cycle of: 30 sec at 95° C.; 30 sec at 59° C.; and 30 sec at 72° C. was repeated 30 times.
(§3) Finally, the solution after the PCR was electrophoresed on a 10% polyacrylamide gel, and stained with GelStar Nucleic Acid Stain (manufactured by Takara Bio Inc.). […] In the order from the leftmost lane, the results with final concentrations of TMPyP being 0 M, 0.1 μM, 0.3 μM, 1 μM, 3 μM and 10 μM are shown.

telomerase [3] = test: Telomerase reaction carried out first, then PCR of the diluted reaction solution, gel electrophoresis, with or without λDNA; format: biochemical; settings: final concentrations 0.1 to 10 μM
Protocol: as §1
In addition, in each of the following Comparative Example 3 and Examples 4 to 5, experiments were carried out with or without addition of a λDNA in the telomerase reaction. Addition of the λDNA was intended to reproduce for mimicking the conditions in which a large amount of double-stranded DNAs are present as in the case of genomic DNAs in cells, and to study the effects of inhibiting telomerase by TMPyP or anionic phthalocyanines even under conditions more approximate to those in vivo, by adding a λDNA.
Telomerase reaction solution in a total volume of 10 μL were prepared by mixing 1 μL of 10× TRAP Reaction buffer, 0.2 μL of 50× dNTP Mix, 0.2 μL of TS primer, 4 μL of the telomerase solution prepared in Comparative Example 1, 2 μL of the TMPyP aqueous solution, and 2.6 μL of milliQ water (the reaction solutions having final TMPyP concentrations of 0 M, 0.1 μM, 0.3 μM, 1 μM, 3 μM and 10 μM were prepared, respectively). Then, the reaction solutions were stood under a condition of 30° C. for 60 min to allow a telomerase reaction to be carried out.
as §2, §3
On the other hand, experiments in which a λDNA was added to the telomerase reaction solution were also carried out. More specifically, in preparing the telomerase reaction solution described above, 2.6 μL of a λDNA solution (manufactured by Takara Bio Inc.) was mixed in place of mixing 2.6 μL of milliQ water. Other telomerase reaction temperature/time schedule, PCR solution preparation condition, PCR temperature/time schedule, electrophoresis condition were just the same.

TITANIUM Taq polymerase = test: PCR control (36-bp PCR amplification product) in S7700 kit one-mix reaction, Bioanalyzer 2100; format: biochemical; settings: TMPyP concentration not less than 3 μM
Protocol: Therefore, TITANIUM […] polymerase (manufactured by Clontech Laboratories) was used in the present studies.
For example, it is highly probable that materials which nonspecifically bind to double-stranded DNAs inhibit PCR.
The S7700 kit includes a set of a template DNA and a primer for such ascertainment in the Primer Mix, and a 36-bp PCR amplification product is obtained from the set when the PCR is carried out.
Therefore, when the effect of a material expected to inhibit the telomerase reaction is verified using the S7700 kit, it is necessary to confirm that the telomerase reaction product is not detected in final results of electrophoresis, and that the 36-bp PCR product is normally amplified.
First, in accordance with the protocol of the kit, a telomerase solution was prepared from the attached control cell pellet. Next, a reaction solution in a total volume of 20 μL was prepared by mixing 2 μL of 10× TRAP Reaction buffer, 0.4 μL of 50× dNTP Mix, 0.4 μL of TS primer, 0.4 μL of Primer Mix, 0.4 μL of TITANIUM Taq polymerase, 14.8 μL of milliQ water (purified water), and 1.6 μL of the telomerase solution prepared as described above.
Subsequently, the telomerase reaction was allowed by standing this reaction solution under a condition of 30° C. for 30 min. Thereafter, PCR was carried out by repeating 33 times a thermo cycle of: 30 sec at 94° C.; 30 sec at 59° C.; and 1 min at 72° C. […]

double-stranded DNA = test: Absorbance 480 to 800 nm of phthalocyanine mixed with double-stranded DNA solution; format: binding; settings: 15 μM compound solution, DNA 50 μM, pH7
Protocol: A solution of 50 mM HEPES and 100 mM NaCl, pH7 (total volume: 100 μL) containing a single-stranded DNA consisting of a sequence of 5′-AGAAGAGAAAGA-3′ (SEQ ID NO: 4) and a single-stranded DNA consisting of a sequence of 5′-TCTTTCTCTTCT-3′ (SEQ ID NO: 5) at each concentration of 50 μM was prepared, which was incubated at 90° C. for 5 min, and thereafter cooled to 0° C. at a rate of temperature fall of 2° C./min, followed by finally incubating at 0° C. for 2 hrs. Since the aforementioned two kinds of DNAs are complementary to one another, both DNAs form a double-stranded DNA in the solution as a result of the incubation (hereafter, the solution referred to as “double-stranded DNA solution”).
(§4) Next, the aforementioned CuPC solution and single-stranded DNA solution, and the aforementioned CuPC solution and double-stranded DNA solution were similarly mixed, respectively. And then the absorbance of these liquid mixtures was measured at 480 to 800 nm. FIG. 9(A) and FIG. 9(B) show the results of the measurement in the cases of the single-stranded DNA solution and the double-stranded DNA solution, respectively.
as §4, with “NiPC” for “CuPC”, “respectively;” for “respectively. And then”, “11(A)” for “9(A)”, “11(B)” for “9(B)”, “respectively. In each drawing, the result obtained when the NC solution was used is also shown together.” for “respectively.”
as §4, with “PC” for “CuPC”, “respectively;” for “respectively. And then”, “mixture” for “mixtures”, “13(A)” for “9(A)”, “13(B)” for “9(B)”, “respectively. In each drawing, the result obtained when the NC solution was used is also shown together.” for “respectively.”
as §4, with “CoPC” for “CuPC”, “respectively, and” for “respectively. And”, “15(A)” for “9(A)”, “15(B)” for “9(B)”, “respectively. In each drawing, the result obtained when the NC solution was used is also shown together.” for “respectively.”

single-stranded DNA = test: Absorbance 480 to 800 nm of phthalocyanine mixed with single-stranded DNA solution; format: binding; settings: 15 μM compound solution, DNA 50 μM, pH7
Protocol: A solution of 50 mM HEPES and 100 mM NaCl, pH7 (total volume: 100 μL) containing a single-stranded DNA consisting of a sequence of 5′-[…]-3′ sequence (SEQ ID NO: 3) at a concentration of 50 μM was prepared, which was incubated at 90° C. for 5 min, and thereafter cooled to 0° C. at a rate of temperature fall of 2° C./min, followed by finally incubating at 0° C. for 2 hrs. The DNA in thus resulting solution was a single-stranded DNA even after the incubation (hereafter, the solution referred to as “single-stranded DNA solution”).
as §4
as §4, with “NiPC” for “CuPC”, “respectively;” for “respectively. And then”, “11(A)” for “9(A)”, “11(B)” for “9(B)”, “respectively. In each drawing, the result obtained when the NC solution was used is also shown together.” for “respectively.”
as §4, with “PC” for “CuPC”, “respectively;” for “respectively. And then”, “mixture” for “mixtures”, “13(A)” for “9(A)”, “13(B)” for “9(B)”, “respectively. In each drawing, the result obtained when the NC solution was used is also shown together.” for “respectively.”
as §4, with “CoPC” for “CuPC”, “respectively, and” for “respectively. And”, “15(A)” for “9(A)”, “15(B)” for “9(B)”, “respectively. In each drawing, the result obtained when the NC solution was used is also shown together.” for “respectively.”

[4] = tested on: G-quadruplex structure (human telomeric oligo DNA); test: Absorbance 480 to 800 nm of phthalocyanine mixed with G-quadruplex solutions; format: binding; settings: for interaction with the G-quadruplex structure (absorption peak): 15 μM compound solution, 50 mM HEPES, 100 mM NaCl, pH7
Protocol: Hereinafter, the interaction between anionic phthalocyanines and various DNAs was studied in Examples 6, 7, 8 and 9. For this purpose, a solution containing a G-quadruplex structure, a solution including a single-stranded DNA, and a solution containing a double-stranded DNA were first prepared according to the following procedures.
A solution of 50 mM HEPES and 100 mM NaCl, pH7 (total volume: 100 μL) containing a single-stranded DNA consisting of a sequence of 5′-[…]-3′ (SEQ ID NO: 2; this sequence being similar to a sequence of a human telomere portion, and thus the DNA referred to as “human telomeric oligo DNA” hereafter) was incubated at 90° C. for 5 min, and thereafter cooled to 0° C. at a rate of temperature fall of 2° C./min, followed by finally incubating at 0° C. for 2 hrs.
The concentrations of the human telomeric oligo DNA contained in the solution were 0, 0.5, 2, 5, 10, 25, 50 and 100 μM.
The absolute values of the positive and negative peaks were maximized for the solution having the human telomeric oligo DNA concentration of 100 μM, and dropped in the order of 50, 25, 10, 5, 2 and 0.5 μM. […] Hereafter, G-quadruplex solutions prepared from the solutions having human telomeric oligo DNA concentrations of 100, 50, 25, 10, 5, 2 and 0.5 μM are referred to as G-quadruplex solutions A, B, C, D, E, F and G, respectively. On the other hand, the solution without the human telomeric oligo DNA contained therein is referred to as NC solution.
First, a solution of 50 mM HEPES and 100 mM NaCl, pH7 (total volume: 20 μL) containing 15 μM CuPC was prepared. Then, this CuPC solution was mixed with each of the G-quadruplex solutions C, D, E and F and the NC solution, and the absorbance of these liquid mixtures were measured at 480 to 800 nm.
First, a solution of 50 mM HEPES and 100 mM NaCl, pH7 (total volume: 20 μL) containing 15 μM NiPC was prepared. Then, this NiPC solution was mixed with each of the G-quadruplex solutions D, E, F and G, and the NC solution, and the absorbance of these liquid mixtures were measured at 480 to 800 nm.
First, a solution of 50 mM HEPES and 100 mM NaCl, pH7 (total volume: 20 μL) containing 15 μM PC was prepared. Then, this PC solution was mixed with each of the G-quadruplex solutions D, E, F and G, and the NC solution, and the absorbance of these liquid mixtures were measured at 480 to 800 nm.
First, a solution of 50 mM HEPES and 100 mM NaCl, pH7 (total volume: 20 μL) containing 15 μM CoPC was prepared. Then, this CoPC solution was mixed with each of the G-quadruplex solutions B, C, D and G, and the NC solution, and the absorbance of these liquid mixtures were measured at 480 to 800 nm.

C[n+]1ccc(-c2c3nc(c(-c4cc[n+](C)cc4)c4ccc([nH]4)c(-c4cc[n+](C)cc4)c4nc(c(-c5cc[n+](C)cc5)c5ccc2[nH]5)C=C4)C=C3)cc1 [TMPyP, reference compound]
total DNA concentration corresponding to the ladder peaks in the reaction product (telomerase [1]): 2.7 ng/µL
amplification of the PCR control (band) [2]: became weaker
inhibition of the telomerase reaction (band of telomerase reaction product) (telomerase [3]; in the presence of λDNA): not inhibited at all
inhibition of the telomerase reaction (band of telomerase reaction product) (telomerase [3]; no addition of λDNA): inhibited the telomerase reaction
DNA concentration corresponding to the PCR control peak (TITANIUM Taq polymerase): not beyond the detection limit

Phthalocyanine tetrasulfonic acid [PC]
interaction with the double-stranded DNA (absorption spectrum vs NC solution) (double-stranded DNA): an interaction did not occur
interaction with the single-stranded DNA (absorption spectrum vs NC solution) (single-stranded DNA): an interaction did not occur
interaction with the G-quadruplex structure (absorption peak) [4]: an interaction occurred

Cobalt(II) phthalocyanine tetracarboxylic acid [CoPC]
interaction with the double-stranded DNA (absorption spectrum vs NC solution) (double-stranded DNA): an interaction did not occur
interaction with the single-stranded DNA (absorption spectrum vs NC solution) (single-stranded DNA): an interaction did not occur
interaction with the G-quadruplex structure (absorption peak) [4]: an interaction occurred
elevation of the peaks in the range of 640 to 720 nm with G-quadruplex ([4]; compared with CuPC, NiPC or PC): less than the resultant elevation when CuPC, NiPC or PC was used

Zinc(II) phthalocyanine tetrasulfonic acid [ZnPC]
interaction with the G-quadruplex structure (absorption peak) [4]: specifically interacted with a G-quadruplex structure
